Results on 70 compounds are retold here after PubChem BioAssay AID1895 (NMMLSC, 2009).

The experiment addresses MEK5 PB1 domain binding to MEKK2 (MAP3K2) mutant PB1, human. As to the kind of experiment: mutant MEKK2 PB1-MEK5 interaction blockers – biochemical, bead multiplex flow cytometry, dose response (AID 1895). The settings on record: Bead-based multiplex flow cytometry; for Ki: measured here: Ki for PB1 binding. Background: Flow cytometry measures light scatter and fluorescence of single cells or particles in a stream.

Structures are written as SMILES. The source made the active and inactive calls. The rule behind the calls is not given here.

One may read the EC50 as the midpoint of the concentration-response curve. Turning to `CN1C(=O)/C(=C\c2ccc(-c3ccccc3)o2)SC1=S`, the EC50 was > 30 µM (inactive).

For `CC[n+]1c(/C=C/C=C/N(C(C)=O)c2ccccc2)sc2ccccc21`, the EC50 was > 30 µM (inactive). Regarding `CC(C)N=c1cc2n(-c3ccc(Cl)cc3)c3ccccc3nc-2cc1Nc1ccc(Cl)cc1`, the EC50 entry is “inactive”. The same measure, in the same setting: with `C#CCOCCOCCOCCNc1nc(N2CCN(C(=O)[C@H](CCC(=O)O)n3cc(C(N)CO)nn3)CC2)nc(N2CCN(C(=O)[C@H](Cc3cc4ccccc4[nH]3)n3cc(C(N)[C@H](C)CC)nn3)CC2)n1` (some centres not stated) the figure was > 30 µM (inactive).

On to `NC(N)=N/N=C/c1ccc(OCc2ccccc2Cl)cc1`, for which the EC50 is > 30 µM (inactive). The same measure, in the same setting: with `CCN(Cc1ccccc1)S(=O)(=O)c1ccc(C(=O)N(CCCN(C)C)c2nc3ccc(F)cc3s2)cc1` the figure was 7.18 µM; with `C#CCOCCOCCOCCNc1nc(N2CCN(C(=O)[C@H]([C@@H](C)CC)n3cc([C@@H](N)CO)nn3)CC2)nc(N2CCN(C(=O)[C@H](Cc3cc4ccccc4[nH]3)n3cc([C@@H](N)C(C)CC)nn3)CC2)n1` (some centres not stated), > 30 µM (inactive); with `Cc1cc2ccccc2n1CCNC(=O)c1ccccc1`, > 30 µM (inactive). As to `C#CCOCCOCCOCCNc1nc(N2CCN(C(=O)[C@H](Cc3cc4ccccc4[nH]3)n3cc([C@@H](N)C(C)CC)nn3)CC2)nc(N2CCN(C(=O)[C@H](Cc3cc4ccccc4[nH]3)n3cc([C@@H](N)CC(C)C)nn3)CC2)n1` (some centres not stated), the EC50 was 3.62 µM. With `C#CCOCCOCCOCCNc1nc(N2CCN(C(=O)[C@H](Cc3ccc(O)cc3)n3cc([C@@H](N)CC(C)C)nn3)CC2)nc(N2CCN(C(=O)[C@H](Cc3ccc(O)cc3)n3cc([C@@H](N)CC(C)C)nn3)CC2)n1`, the EC50 was 25.1 µM.

On to `OCCCCNCc1ccc(OCc2ccc(Cl)cc2Cl)cc1`, for which the EC50 was > 30 µM (inactive).

Take `C#CCOCCOCCOCCNc1nc(N2CCN(C(=O)[C@H]([C@@H](C)CC)n3cc([C@@H](N)CO)nn3)CC2)nc(N2CCN(C(=O)[C@H](Cc3cc4ccccc4[nH]3)n3cc([C@@H](N)Cc4ccc(O)cc4)nn3)CC2)n1`: the EC50 entry was “inactive”. In the case of `CCN1CCN(Cc2ccc(NC(=O)c3cc(NC(=O)c4cnn(-c5ccccc5)c4N)cc(OC)c3)cc2C(F)(F)F)CC1`, the EC50 was > 30 µM (inactive).

For the compound `C#CCOCCOCCOCCNc1nc(N2CCN(C(=O)[C@H](Cc3cc4ccccc4[nH]3)n3cc([C@@H](N)C(C)CC)nn3)CC2)nc(N2CCN(C(=O)[C@H](CCCCN)n3cc([C@@H](N)CC(C)C)nn3)CC2)n1` (some centres not stated), the EC50 is 10.3 µM. One may read the Ki as the equilibrium dissociation constant of an inhibitor or competing ligand from its target. Lower therefore signals tighter binding. Turning to `CCN(CC)CCOC(=O)c1ccc(N/C=C(/C#N)c2nc(-c3cc4ccccc4oc3=O)cs2)cc1`, the EC50 was 4.9 µM and the Ki came to 4.8 µM. Regarding `COC(=O)C1=C(C)N(Cc2ccccc2)C(=NCc2cccc(C(F)(F)F)c2)N[C@H]1c1cccc(F)c1`, the EC50 was 13.8 µM. `CCCCCCCCCCOC(=O)Cn1c(COc2ccccc2OC)[n+](C)c2ccccc21`: the EC50 was > 30 µM (inactive). In the case of `Cc1cc2cc(CNC(=O)NC3CCCCC3)ccc2[nH]1`, the EC50 is > 30 µM (inactive). For `CCN1C(c2ccccc2)=C(c2ccccc2)S/C1=C/C=C1\SC(=S)N(C)C1=O`, the EC50 result is “inactive” and the Ki came out at 3.16 µM.

For the compound `COc1ccc2nc3cc(Cl)ccc3c(Nc3cc(C(C)C)c(O)cc3C)c2c1`, the EC50 was 5.37 µM. On to `CCc1ccc(Nc2n[n+](-c3ccccc3)c(-c3ccc(OC)c(Br)c3)s2)cc1`, for which the EC50 is 4.62 µM. Turning to `CCN(CC)CCOC(=O)c1ccc(N/C=C(/C#N)c2nc(-c3ccc(OC)cc3)cs2)cc1`, the EC50 was > 30 µM (inactive).

Turning to `CCCCn1c(O)c(/C=C/C=C/C=Nc2ccccc2)sc1=S`, the EC50 entry was “inactive”. As to `CC(=O)Nc1cccc2c1C(=O)N(c1cccc(C)c1)C2=O`, the EC50 is > 30 µM (inactive). Turning to `Cc1ccc(-n2cc(CNCCCn3ccnc3C)c(-c3ccc(F)cc3)n2)cc1`, the EC50 was > 30 µM (inactive). As to `O=C(Nc1ccc(Cl)cn1)c1ccc2c(Cl)c3c(nc2c1)CCC3`, the EC50 is > 30 µM (inactive). With `COc1ccc(-c2[nH]ncc2CN2CCCCCCC2)c(OC)c1`, the EC50 was > 30 µM (inactive). `N=C(N)SCc1cn(-c2ccccc2)nc1-c1ccc(Br)cc1`: the EC50 was 8.53 µM.

As to `CC(=O)Nc1ccc(OCC(O)Cn2c3ccccc3c3ccccc32)cc1` (configuration not stated), the EC50 was > 30 µM (inactive). On to `CCN1/C(=C\c2ccc3cc(C)ccc3[n+]2CC)Sc2cc(C)c(C)cc21`, for which the EC50 was > 30 µM (inactive). With `C#CCOCCOCCOCCNc1nc(N2CCN(C(=O)[C@H](Cc3ccc(O)cc3)n3cc([C@@H](N)C(C)CC)nn3)CC2)nc(N2CCN(C(=O)[C@H](Cc3cc4ccccc4[nH]3)n3cc([C@@H](N)CC(C)C)nn3)CC2)n1` (some centres not stated), the EC50 was 24.9 µM. For the compound `CCN1/C(=C/c2ccc3cc(C)ccc3[n+]2C)Sc2ccc3sccc3c21`, the EC50 is > 30 µM (inactive). Consider `CCN1CCN(Cc2ccc(NC(=O)c3cc(NC(=O)C(=O)c4c[nH]c5ccccc45)cc(OC)c3)cc2C(F)(F)F)CC1`, for which the EC50 was 0.5 µM. With `C#CCOCCOCCOCCNc1nc(N2CCN(C(=O)[C@H](CCCCN)n3cc([C@@H](N)CC(C)C)nn3)CC2)nc(N2CCN(C(=O)[C@H](Cc3cc4ccccc4[nH]3)n3cc([C@@H](N)Cc4ccc(O)cc4)nn3)CC2)n1`, the EC50 is 11.1 µM. Same read-out and setting: with `COC(=O)c1c(C)oc(C)c1S(=O)(=O)N(Cc1ccccc1)C(C)C` the figure was > 30 µM (inactive); with `CCCN(CCC)CCNC(=O)c1cc2c(-c3ccc(Cl)cc3)nn(C)c2s1`, 11.2 µM. Take `CCN(CC)CCOC(=O)c1ccc(NC(=O)c2cn(-c3ccccc3)nc2-c2cccs2)cc1`: the EC50 was > 30 µM (inactive).

Turning to `CCN1CCN(CCNC(=O)c2ccc(/C=C3/Sc4ccccc4N(Cc4cccc(Cl)c4)C3=O)cc2)CC1`, the EC50 was 6.53 µM. For `CC(=O)c1c(C)[nH]c(C(=O)NC2=NCCS2)c1C`, the EC50 is > 30 µM (inactive). As to `CCOC(=O)c1c(CSC(=N)N)n(-c2ccc(C)cc2)c2cc(Br)c(OC(C)=O)cc12`, the EC50 was 10.3 µM.

In the case of `CCCCN(CC)CCNC(=O)c1cc2c(-c3ccc(Cl)cc3)nn(C)c2s1`, the EC50 was 22.8 µM. On to `CCC(/C=C1\Sc2ccc(OC)cc2N1CCO)=C\c1sc2ccc(OC)cc2[n+]1CCO`, for which the EC50 is 0.51 µM and the Ki was 0.5 µM. `C=CC#CC[N+]1(CC#Cc2ccccc2)CCOCC1`: the EC50 was > 30 µM (inactive). Regarding `CCC(=C/c1sc2ccc3ccccc3c2[n+]1C)/C=C1\Sc2ccc3ccccc3c2N1C`, the EC50 result was “inactive” and the Ki amounted to 0.14 µM. Take `CN(c1ccccc1)c1ccc(/C=c2\s/c(=C(/C#N)C(=O)C(C)(C)C)n(Cc3ccco3)c2=O)cc1`: the EC50 entry was “inactive” and the Ki worked out at 0.16 µM. As for `CCN(CC)CCOC(=O)c1ccc(N/C=C(/C#N)c2nc(-c3cccc(OC)c3)cs2)cc1`, the EC50 was > 30 µM (inactive).

In the case of `Cc1nn2c(N)csc2nc1=O`, the EC50 entry is “inactive” and the Ki turned out to be 3.34 µM. Consider `CNC(=O)C(=O)Nc1c(C)cc(C)cc1C`, for which the EC50 was > 30 µM (inactive).

`CN(C)CCCN(C(=O)c1ccc2c(c1)CCCC2)c1nc2ccc(Cl)cc2s1`: the EC50 is > 30 µM (inactive).

Regarding `CCOC(=O)C1=C(c2ccccc2)NC(N)=NC1c1ccc(OCc2ccc(Cl)cc2)c(OC)c1` (configuration not stated), the EC50 is 9.64 µM. With `COc1ccc(N2CC(C(=O)Nc3nnc(SCc4ccccn4)s3)CC2=O)cc1` (configuration not stated), the EC50 is > 30 µM (inactive).

With `C/C(=N\NC(=O)c1cc(O)cc(O)c1)c1ccc(NC(=O)Cc2ccccc2)cc1`, the EC50 was > 30 µM (inactive).

As to `CCCCCCCCCCOC(=O)Cn1c(COc2ccccc2)[n+](C)c2ccccc21`, the EC50 was 6 µM. Take `CCCCCCCCCCCCCCCC[n+]1cccc2ccccc21`: the EC50 is 6.89 µM.

`C#CCOCCOCCOCCNc1nc(N2CCN(C(=O)[C@H](Cc3ccc(O)cc3)n3cc([C@@H](N)CC(C)C)nn3)CC2)nc(N2CCN(C(=O)[C@H](Cc3cc4ccccc4[nH]3)n3cc([C@@H](N)CC(C)C)nn3)CC2)n1`: the EC50 was > 30 µM (inactive). As for `CCCCCCCCCCOC(=O)Cn1c(COc2ccc(OC)cc2)[n+](C)c2ccccc21`, the EC50 is > 30 µM (inactive).

For `O=[N+]([O-])c1ccc(/C=C/C2=NN(c3ccccc3)C(c3ccco3)C2)o1` (configuration not stated), the EC50 was > 30 µM (inactive). On to `CNc1nc(-c2c[nH]c3ccccc23)cs1`, for which the EC50 is > 30 µM (inactive). On the same count and under the same terms, in the case of `Nc1ccc2nc(-c3ccc(-c4nc5ccc(N)cc5[nH]4)cc3)[nH]c2c1` it was > 30 µM (inactive). On the same count and under the same terms, with `CN(C)CCCNc1cc(C(C)(C)C)nc2c(-c3ccc(Cl)cc3)cnn12` the figure was > 30 µM (inactive); with `CCCCCc1cc(=O)oc2c(C(CCN3CCCC(C)C3)c3ccc4c(c3)OCO4)c(OC)cc(OC)c12` (configuration not stated), > 30 µM (inactive). For the compound `COc1ccc(Cn2cc3c(-c4ccc(F)cc4)nnc-3c3cc(OC)c(OC)cc32)cc1`, the EC50 was > 30 µM (inactive). For `COc1ccc(CNC[C@@H](CCCCN(C)Cc2ccc(OC)cc2)N2C[C@H](c3ccccc3)N(CCc3ccc(Cl)c(Cl)c3)C(=O)C2=O)cc1`, the EC50 was > 30 µM (inactive). Take `CCCCCCCCCC[N+](C)(C)CC/C=C1/c2ccccc2Sc2ccc(Cl)cc21`: the EC50 is > 30 µM (inactive).

For `O=C1Nc2ccc(Br)cc2/C1=N/N=C/C1=C(N2CCOCC2)C(=C\c2ccccc2)/CC1`, the EC50 result was “inactive” and the Ki is 2.03 µM. For `O=C(OCC1O[C@@H](OC(=O)c2cc(O)c(O)c(O)c2)[C@@H](OC(=O)c2cc(O)c(O)c(O)c2)[C@@H](OC(=O)c2cc(O)c(O)c(O)c2)[C@@H]1OC(=O)c1cc(O)c(O)c(O)c1)c1cc(O)c(O)c(O)c1` (some centres not stated), the EC50 was > 30 µM (inactive). Regarding `CCCCCc1cc(=O)oc2c(C(CCN3CCCC3)c3ccc(N(C)C)cc3)c(OC)cc(OC)c12` (configuration not stated), the EC50 is 26.4 µM. With `COc1ccc2[nH]c3c(C)c4ccncc4c(C)c3c2c1`, the EC50 is > 30 µM (inactive). Consider `CN1CCN(CC(O)COc2ccc(C34CC5CC(CC(C5)C3)C4)cc2)CC1` (configuration not stated), for which the EC50 was > 30 µM (inactive). Take `CCCCCCCCCCOC(=O)Cn1c(COc2ccccc2C)[n+](C)c2ccccc21`: the EC50 is 1.02 µM.
